How the values were obtained:
[1] = Stability of compound A2 in aqueous media; type: physicochemical
Procedure: Also, it is understood that the pH is of significance for the stability of compound A2 in aqueous media with the best stability at pH around 1-4, higher concentration of the substance results in lower pH. 1 mg/ml of said aqueous solution has a pH about 2-3.

[2] = Stability study of lyophilised powder, 2-8° C.; type: physicochemical; conditions: for Any individual purity / Assay / RRT 1.13 (impurity) / RRT 1.23-1.24 (impurity) / RRT 1.47-1.51 (impurity) / Specified impurity* (hydrolysis impurity) / Total impurities / Water content / Z-isomer RRT 0.92-0.93 / pH: 2-8° C.
[3] = Stability study of lyophilised powder, accelerated 25° C./60% RH
Procedure: The stability study of the di-hydrochloride ethanol co-crystal precipitate and of the lyophilized di-hydrochloride salt was conducted in accordance with the International Conference on Harmonizations (ICH) guideline Q1A (R2) Stability Testing of New Drug Substances and Products. All analytical instruments used to analyze the stability samples during the study are qualified in compliance with current cGMP.
The LOQ is 0.05%, peaks <than LOQ was recorded as <0.05%.

[4] = Solubility of lyophilisate in water; type: physicochemical
Procedure: Glucose and mannitol were evaluated as excipients, both alone and in combination with NaCl. The best result regarding solubility, texture of the lyophilised cake and suppression of impurity formation was obtained with 5% (w/v) mannitol as additive.
The best result concerning formation of impurities and texture of the freeze dried cake was obtained with the freeze drying cycle described in Table 3 and the mannitol content set at 5%.

SMILES: CC(=NNc1nnc2c(n1)[nH]c1c(C)cccc12)c1ccccn1.Cl.Cl [Compound A2]
- pH of aqueous solution ([1]; 1 mg/ml): 2-3
- pH of best stability ([1]; aqueous media): 1-4
- time over which formation of by-products is suppressed ([1]; aqueous media, 1 mg/ml): up to 24 hrs
- hydrolysis in aqueous solvents ([1]; aqueous solvents): readily hydrolyses
- appearance ([2]; 2-8° C. up to 24 months): yellow to orange freeze dried cake during the whole test period
- appearance after reconstitution ([2]; 2-8° C. up to 24 months): yellow to orange solution without visible particles
- Any individual purity ([2]; 0 months): 0.4%
- Assay ([2]; 0 months): 97.8 % w/w
- RRT 1.13 (impurity) ([2]; 0 months): 0.05%
- RRT 1.23-1.24 (impurity) ([2]; 0 months): 0.06%
- RRT 1.47-1.51 (impurity) ([2]; 0 months): 0.37%
- Specified impurity* (hydrolysis impurity) ([2]; 0 months): <0.5%
- Total impurities ([2]; 0 months): 0.7%
- Water content ([2]; 0 months): 0.33%
- Z-isomer RRT 0.92-0.93 ([2]; 0 months): 0.1%
- pH ([2]; 0 months): 1.6
- Any individual purity ([2]; 1 month): 0.3%
- Assay ([2]; 1 month): 98.4 % w/w
- RRT 1.13 (impurity) ([2]; 1 month): <0.05%
- RRT 1.23-1.24 (impurity) ([2]; 1 month): 0.05%
- RRT 1.47-1.51 (impurity) ([2]; 1 month): 0.32%
- Specified impurity* (hydrolysis impurity) ([2]; 1 month): <0.05%
- Total impurities ([2]; 1 month): 0.5%
- Water content ([2]; 1 month): 0.41%
- Z-isomer RRT 0.92-0.93 ([2]; 1 month): 0.1%
- pH ([2]; 1 month): 1.6
- Any individual purity ([2]; 3 months): 0.1%
- Assay ([2]; 3 months): 95.9 % w/w
- RRT 1.13 (impurity) ([2]; 3 months): <0.05%
- RRT 1.23-1.24 (impurity) ([2]; 3 months): 0.08%
- RRT 1.47-1.51 (impurity) ([2]; 3 months): 0.05%
- Specified impurity* (hydrolysis impurity) ([2]; 3 months): <0.05%
- Total impurities ([2]; 3 months): 0.3%
- Water content ([2]; 3 months): 0.47%
- Z-isomer RRT 0.92-0.93 ([2]; 3 months): 0.1%
- pH ([2]; 3 months): 1.6
- Any individual purity ([2]; 6 months): 0.1%
- Assay ([2]; 6 months): 97.3 % w/w
- RRT 1.13 (impurity) ([2]; 6 months): <0.05%
- RRT 1.23-1.24 (impurity) ([2]; 6 months): 0.05%
- RRT 1.47-1.51 (impurity) ([2]; 6 months): <0.05%
- Specified impurity* (hydrolysis impurity) ([2]; 6 months): 0.08%
- Total impurities ([2]; 6 months): 0.4%
- Water content ([2]; 6 months): 0.37%
- Z-isomer RRT 0.92-0.93 ([2]; 6 months): 0.1%
- pH ([2]; 6 months): 1.5
- Any individual purity ([2]; 12 months): 0.1%
- Assay ([2]; 12 months): 93.9 % w/w
- RRT 1.13 (impurity) ([2]; 12 months): <0.05%
- RRT 1.23-1.24 (impurity) ([2]; 12 months): 0.06%
- RRT 1.47-1.51 (impurity) ([2]; 12 months): <0.05%
- Specified impurity* (hydrolysis impurity) ([2]; 12 months): 0.08%
- Total impurities ([2]; 12 months): 0.2%
- Water content ([2]; 12 months): 0.53%
- Z-isomer RRT 0.92-0.93 ([2]; 12 months): <0.05%
- pH ([2]; 12 months): 1.6
- Any individual purity ([2]; 18 months): 0.1%
- Assay ([2]; 18 months): 94.6 % w/w
- RRT 1.13 (impurity) ([2]; 18 months): 0.05%
- RRT 1.23-1.24 (impurity) ([2]; 18 months): 0.05%
- RRT 1.47-1.51 (impurity) ([2]; 18 months): 0.05%
- Specified impurity* (hydrolysis impurity) ([2]; 18 months): 0.10%
- Total impurities ([2]; 18 months): 0.3%
- Water content ([2]; 18 months): 0.43%
- Z-isomer RRT 0.92-0.93 ([2]; 18 months): <0.05%
- pH ([2]; 18 months): 1.6
- Any individual purity ([2]; 24 months): 0.10%
- Assay ([2]; 24 months): 94.2 % w/w
- RRT 1.13 (impurity) ([2]; 24 months): <LOQ
- RRT 1.23-1.24 (impurity) ([2]; 24 months): 0.05%
- RRT 1.47-1.51 (impurity) ([2]; 24 months): 0.10%
- Specified impurity* (hydrolysis impurity) ([2]; 24 months): 0.09%
- Total impurities ([2]; 24 months): 0.34%
- Water content ([2]; 24 months): 0.39%
- Z-isomer RRT 0.92-0.93 ([2]; 24 months): 0.05%
- pH ([2]; 24 months): 1.7
- bacterial growth / sterility ([2]; 24 months period): No bacterial growth was detected
- reconstitution time ([2]; Table 4a study): up to 3 minutes
- degradation on storage ([2]; vials crimp sealed under nitrogen, 5° C., 24 months): no degradation was seen
- bacterial growth / sterility ([3]; 24 months period in room temperature): No bacterial growth was detected
- appearance ([3]; 25° C./60% RH): yellow to orange freeze dried cake during the whole test period
- appearance after reconstitution ([3]; 25° C./60% RH): yellow to orange solution without visible particles
- reconstitution time ([3]; 25° C./60% RH): up to 3 minutes
- Any individual purity ([3]; 25° C./60% RH, 0 months): 0.4%
- Assay ([3]; 25° C./60% RH, 0 months): 97.8 % w/w
- RRT 1.13 (impurity) ([3]; 25° C./60% RH, 0 months): 0.05%
- RRT 1.23-1.24 (impurity) ([3]; 25° C./60% RH, 0 months): 0.06%
- RRT 1.47-1.51 (impurity) ([3]; 25° C./60% RH, 0 months): 0.37%
- Specified impurity* (hydrolysis impurity) ([3]; 25° C./60% RH, 0 months): <0.5%
- Total impurities ([3]; 25° C./60% RH, 0 months): 0.7%
- Water content ([3]; 25° C./60% RH, 0 months): 0.33%
- Z-isomer RRT 0.92-0.93 ([3]; 25° C./60% RH, 0 months): 0.1%
- pH ([3]; 25° C./60% RH, 0 months): 1.6
- Any individual purity ([3]; 25° C./60% RH, 1 month): 0.1%
- Assay ([3]; 25° C./60% RH, 1 month): 97.2 % w/w
- RRT 1.13 (impurity) ([3]; 25° C./60% RH, 1 month): <0.05%
- RRT 1.23-1.24 (impurity) ([3]; 25° C./60% RH, 1 month): 0.05%
- RRT 1.47-1.51 (impurity) ([3]; 25° C./60% RH, 1 month): 0.13%
- Specified impurity* (hydrolysis impurity) ([3]; 25° C./60% RH, 1 month): 0.1%
- Total impurities ([3]; 25° C./60% RH, 1 month): 0.3%
- Water content ([3]; 25° C./60% RH, 1 month): 0.39%
- Z-isomer RRT 0.92-0.93 ([3]; 25° C./60% RH, 1 month): <0.05%
- pH ([3]; 25° C./60% RH, 1 month): 1.6
- Any individual purity ([3]; 25° C./60% RH, 3 months): 0.2%
- Assay ([3]; 25° C./60% RH, 3 months): 95.4 % w/w
- RRT 1.13 (impurity) ([3]; 25° C./60% RH, 3 months): <0.05%
- RRT 1.23-1.24 (impurity) ([3]; 25° C./60% RH, 3 months): 0.08%
- RRT 1.47-1.51 (impurity) ([3]; 25° C./60% RH, 3 months): 0.05%
- Specified impurity* (hydrolysis impurity) ([3]; 25° C./60% RH, 3 months): <0.05%
- Total impurities ([3]; 25° C./60% RH, 3 months): 0.7%
- Water content ([3]; 25° C./60% RH, 3 months): 0.55%
- Z-isomer RRT 0.92-0.93 ([3]; 25° C./60% RH, 3 months): 0.1%
- pH ([3]; 25° C./60% RH, 3 months): 1.6
- Any individual purity ([3]; 25° C./60% RH, 6 months): 0.1%
- Assay ([3]; 25° C./60% RH, 6 months): 98.3 % w/w
- RRT 1.13 (impurity) ([3]; 25° C./60% RH, 6 months): <0.05%
- RRT 1.23-1.24 (impurity) ([3]; 25° C./60% RH, 6 months): 0.06%
- RRT 1.47-1.51 (impurity) ([3]; 25° C./60% RH, 6 months): <0.05%
- Specified impurity* (hydrolysis impurity) ([3]; 25° C./60% RH, 6 months): 0.08%
- Total impurities ([3]; 25° C./60% RH, 6 months): 0.4%
- Water content ([3]; 25° C./60% RH, 6 months): 0.45%
- Z-isomer RRT 0.92-0.93 ([3]; 25° C./60% RH, 6 months): 0.1%
- pH ([3]; 25° C./60% RH, 6 months): 1.5
- Any individual purity ([3]; 25° C./60% RH, 12 months): 0.1%
- Assay ([3]; 25° C./60% RH, 12 months): 94.6 % w/w
- RRT 1.13 (impurity) ([3]; 25° C./60% RH, 12 months): <0.05%
- RRT 1.23-1.24 (impurity) ([3]; 25° C./60% RH, 12 months): 0.06%
- RRT 1.47-1.51 (impurity) ([3]; 25° C./60% RH, 12 months): <0.05%
- Specified impurity* (hydrolysis impurity) ([3]; 25° C./60% RH, 12 months): 0.08%
- Total impurities ([3]; 25° C./60% RH, 12 months): 0.2%
- Water content ([3]; 25° C./60% RH, 12 months): 0.59%
- Z-isomer RRT 0.92-0.93 ([3]; 25° C./60% RH, 12 months): 0.10%
- pH ([3]; 25° C./60% RH, 12 months): 1.6
- Any individual purity ([3]; 25° C./60% RH, 18 months): 0.1%
- Assay ([3]; 25° C./60% RH, 18 months): 93.9 % w/w
- RRT 1.23-1.24 (impurity) ([3]; 25° C./60% RH, 18 months): 0.06%
- Specified impurity* (hydrolysis impurity) ([3]; 25° C./60% RH, 18 months): 0.10%
- Total impurities ([3]; 25° C./60% RH, 18 months): 0.20%
- Water content ([3]; 25° C./60% RH, 18 months): 0.49%
- Z-isomer RRT 0.92-0.93 ([3]; 25° C./60% RH, 18 months): <0.05%
- pH ([3]; 25° C./60% RH, 18 months): 1.5
- Any individual purity ([3]; 25° C./60% RH, 24 months): 0.10%
- Assay ([3]; 25° C./60% RH, 24 months): 94.5 % w/w
- RRT 1.13 (impurity) ([3]; 25° C./60% RH, 24 months): <LOQ
- RRT 1.23-1.24 (impurity) ([3]; 25° C./60% RH, 24 months): 0.06%
- RRT 1.47-1.51 (impurity) ([3]; 25° C./60% RH, 24 months): 0.09%
- Specified impurity* (hydrolysis impurity) ([3]; 25° C./60% RH, 24 months): 0.10%
- Total impurities ([3]; 25° C./60% RH, 24 months): 0.36%
- Water content ([3]; 25° C./60% RH, 24 months): 0.45%
- Z-isomer RRT 0.92-0.93 ([3]; 25° C./60% RH, 24 months): 0.05%
- pH ([3]; 25° C./60% RH, 24 months): 1.6
- time the lyophilisate is stable ([3]; room temperature): at least 24 months
- solubility in water ([4]; after lyophilisation versus prior to (A1)): less soluble in water
- solubility on addition of NaCl ([4]; increase in pH generated by NaCl): decreased the solubility

From patent US10668056B2, “Pharmaceutical composition comprising indole derivatives, process for preparation and use thereof” (VIVOLUX AB, priority 2015, dated 2020)
